Reference: publication PMC2662387 (Journal of medicinal chemistry, 2008)

Legend:
[1] = molecular target: D2 receptor (Rattus norvegicus, UniProt P61169); experiment: Hypothermia in rats; type: in vivo; details: for Induction of hypothermia: compound alone
[2] = molecular target: T1, D3 receptor (Rattus norvegicus, UniProt P19020); type: in vivo; details: rats
[3] = Aqueous solubility; type: physicochemical
[4] = molecular target: T1, D3 receptor; experiment: D3 receptor binding assay, [3H]PD128907, rat brain; details: for Fold less potent than 6 at the D3 receptor: relative to compound 6

T1 sequence (P19020 whole entry): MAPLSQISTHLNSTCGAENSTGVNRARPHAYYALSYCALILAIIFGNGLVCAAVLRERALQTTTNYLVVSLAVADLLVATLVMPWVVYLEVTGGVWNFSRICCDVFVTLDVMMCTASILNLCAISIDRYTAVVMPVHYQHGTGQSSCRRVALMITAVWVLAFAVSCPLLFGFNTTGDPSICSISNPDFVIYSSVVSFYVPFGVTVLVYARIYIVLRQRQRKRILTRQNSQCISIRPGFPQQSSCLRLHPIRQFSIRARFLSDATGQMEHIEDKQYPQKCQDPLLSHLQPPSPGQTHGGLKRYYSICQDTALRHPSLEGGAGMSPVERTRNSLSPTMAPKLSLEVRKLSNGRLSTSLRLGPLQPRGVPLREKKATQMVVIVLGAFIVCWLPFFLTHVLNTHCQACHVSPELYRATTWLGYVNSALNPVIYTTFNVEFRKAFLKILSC
D2 receptor, sequence (P61169 whole entry): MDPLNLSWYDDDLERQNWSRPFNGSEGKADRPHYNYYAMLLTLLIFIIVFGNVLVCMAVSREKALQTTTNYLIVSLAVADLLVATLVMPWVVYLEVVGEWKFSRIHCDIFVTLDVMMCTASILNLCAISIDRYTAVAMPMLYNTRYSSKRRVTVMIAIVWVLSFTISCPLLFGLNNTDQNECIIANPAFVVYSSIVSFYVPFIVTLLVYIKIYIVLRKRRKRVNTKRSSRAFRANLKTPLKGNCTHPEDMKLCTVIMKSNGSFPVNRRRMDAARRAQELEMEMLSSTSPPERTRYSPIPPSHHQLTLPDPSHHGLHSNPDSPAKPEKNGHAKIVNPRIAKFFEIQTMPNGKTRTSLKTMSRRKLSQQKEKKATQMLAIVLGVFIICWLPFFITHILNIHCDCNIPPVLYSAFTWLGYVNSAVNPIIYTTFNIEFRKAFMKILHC

| SMILES | Induction of hypothermia [1] | Aqueous solubility (in words) [3] | further results |
| --- | --- | --- | --- |
| CCCN[C@H]1CCc2nc(N)sc2C1 [Compound 1, pramipexole, reference compound] | induction of hypothermia occurring at higher doses | – | Induction of yawning ([2]; compound alone, dose-response): increases in yawning were observed over low doses (0.01 to 0.1 mg/kg); In vivo functional profile at D3 and D2 receptors ([2]; concluded from yawning and hypothermia assays): preferential D3 agonist in vivo and a D2 agonist at higher doses |
| COc1ccc2c(c1)CC[C@@H]1CN(CC[C@H]3CC[C@H](NC(=O)c4ccc5ccccc5c4)CC3)CCN21 [Compound 4, reference compound] | – | poor aqueous solubility | Selectivity D1-like/D3 ([4]; ratio of Ki values): >5000 fold; Selectivity D2-like/D3 ([4]; ratio of Ki values, high affinity D2 component where 2-site fit): >1000 fold |
| CCCN(CCCCNC(=O)c1ccc2ccccc2c1)[C@H]1CCc2nc(N)sc2C1 [Compound 5] | hypothermia was induced by 5 at higher doses | good aqueous solubility | – |
| CCCN(CC[C@H]1CC[C@H](NC(=O)c2ccc3ccccc3c2)CC1)[C@H]1CCc2nc(N)sc2C1.Cl.Cl [Compound 6] | failed to induce changes in body temperature over the initial hour of observation | good aqueous solubility | – |
| CC(C)CCN(CC[C@H]1CC[C@H](NC(=O)c2ccc3ccccc3c2)CC1)[C@H]1CCc2nc(N)sc2C1 [Compound 8] | – | – | Fold less potent than 6 at the D3 receptor [4]: 5 times |
| Nc1nc2c(s1)C[C@@H](NCC[C@H]1CC[C@H](NC(=O)c3ccc4ccccc4c3)CC1)CC2 [Compound 10] | – | – | Fold less potent than 6 at the D3 receptor [4]: 19 times |
| CCCN(CC[C@H]1CC[C@H](NC(=O)/C=C/c2ccccc2)CC1)[C@H]1CCc2nc(N)sc2C1 [Compound 12] | failed to induce changes in body temperature over the initial hour of observation | good aqueous solubility | Effect on compound 1-induced hypothermia ([1]; pretreatment with 12): failed to alter the induction of hypothermia by 1 |
